Values of other authors in patent US20160030469A1, “Human End Uses for a Gas Transporting Rheological Medium” (priority 2014, published 2016).

Settings: equilibrium with air (pO2=0.21) at 77° F.

- solubility limit of oxygen in water: approximately 8.3 mg/l
SMILES: O=O [oxygen]
